IC50 and Activity data for 15 compounds are collected here from ChEMBL document CHEMBL5257072, “Synthesis of Lathyrol PROTACs and Evaluation of Their Anti-Inflammatory Activities” (J Nat Prod, 2023).

The IC50 is the midpoint of a concentration-inhibition curve.

The test system of experiment [1] is RAW264.7. The experiment in a line: Cytotoxicity against mouse RAW264.7 cells assessed as reduction in cell viability incubated for 24 hrs by CCK-8 method. The experiment is classed as functional, cell-based. The note with it: RAW264.7, 24 h.
Experiment [2] deals with RAW264.7. The experiment in a line: Anti-inflammatory activity in mouse RAW264.7 cells assessed as inhibition of LPS-induced NO production incubated for 3 hrs followed by LPS addition and measured after 24 hrs. The experiment is classed as functional, cell-based.
The test system of experiment [3] is RAW264.7. The experiment is described as follows: Cytotoxicity against mouse RAW264.7 cells assessed as reduction in cell viability at 25 uM incubated for 24 hrs by CCK-8 method. The class given is functional, cell-based.
The target in experiment [4] is Transcription factor MafF (Mus musculus) (UniProt O54791). The experiment in a line: Induction of degradation of MAFF in mouse RAW264.7 cells assessed as reduction in MAFF expression at 20 uM measured after 24 hrs. The experiment is classed as cell-based.
Experiment [5] concerns RAW264.7. The experiment is described as follows: Antiinflammatory activity in LPS induced mouse RAW264.7 cells assessed as upregulation of Nrf2 expression at 5 to 20 uM. The experiment is classed as functional, cell-based. The note with it: dose 5-20 µM.
The subject of experiment [6] is RAW264.7. The experiment is described as follows: Antiinflammatory activity in LPS induced mouse RAW264.7 cells assessed as inhibition of […] phosphorylation at 5 to 20 uM by immunofluorescence analysis. The experiment is classed as functional, cell-based. The settings on record: dose 5-20 µM.
For experiment [7], the system named is RAW264.7. The experiment is described as follows: Antiinflammatory activity in LPS induced mouse RAW264.7 cells assessed as reduction in inducible nitric oxide synthase by immunofluorescence analysis. The class given is functional, cell-based. The settings on record: dose 5-20 µM.
The target in experiment [8] is Transcription factor MafF (Mus musculus) (UniProt O54791). The experiment in a line: Induction of degradation of MAFF in mouse RAW264.7 cells at 20 uM measured after 24 hrs. The experiment is classed as cell-based.
The target is the same in experiment [9]. The experiment in a line: Induction of degradation of MAFF in mouse RAW264.7 cells at 40 uM measured after 24 hrs. The experiment is classed as cell-based.
In experiment [10] the test system is RAW264.7. The experiment is described as follows: Antiinflammatory activity in LPS induced mouse RAW264.7 cells assessed as inhibition of NF-kappaB phosphorylation at 5 to 20 uM by immunofluorescence analysis. The class given is functional, cell-based. The note with it: dose 5-20 µM.
For experiment [11], the system named is RAW264.7. The experiment in a line: Antiinflammatory activity in LPS induced mouse RAW264.7 cells assessed as inhibition of nuclear translocation of NF-kappaB at 20 uM by immunofluorescence analysis. The class given is functional, cell-based.
For experiment [12], the system named is RAW264.7. The experiment is described as follows: Induction of autophagy in LPS induced mouse RAW264.7 cells assessed as increase in LC3B-II expression at 5 to 40 uM by Western blot analysis. The note with it: dose 5-40 µM. The experiment is classed as functional, cell-based. A general note: A western blot detects proteins with antibodies after separation by electrophoresis.

Experiment [13] has as its system RAW264.7. The experiment is described as follows: Induction of autophagy in LPS induced mouse RAW264.7 cells assessed as increase in p62 expression at 5 to 40 uM by Western blot analysis. The class given is functional, cell-based. The note with it: dose 5-40 µM.
Experiment [14] deals with Transcription factor MafF (Mus musculus) (UniProt O54791). The experiment is described as follows: Induction of degradation of MAFF in mouse RAW264.7 cells at 20 uM incubated for 24 hrs in presence of MG132 by Western blot analysis. The experiment is classed as cell-based.
The target is the same in experiment [15]. The experiment is described as follows: Induction of degradation of MAFF in mouse RAW264.7 cells at 2.5 to 20 uM measured after 24 hrs. The settings on record: dose 2.5-20 µM. The experiment is classed as cell-based.
Experiment [16] concerns RAW264.7. The experiment in a line: Antiinflammatory activity in LPS induced mouse RAW264.7 cells assessed as upregulation of heme oxygenase I expression at 5 to 20 uM. The settings on record: dose 5-20 µM. The experiment is classed as functional, cell-based.
For experiment [17], the system named is RAW264.7. The experiment in a line: Antiinflammatory activity in LPS induced mouse RAW264.7 cells assessed as inhibition of ROS production by DCFH-DA staining based fluorescence assay. The experiment is classed as functional, cell-based. The note with it: dose 5-20 µM.

Active and inactive are the calls of the source. No cut-off for these calls is given here.

Chain of Transcription factor MafF (Mus musculus) (O54791 whole entry): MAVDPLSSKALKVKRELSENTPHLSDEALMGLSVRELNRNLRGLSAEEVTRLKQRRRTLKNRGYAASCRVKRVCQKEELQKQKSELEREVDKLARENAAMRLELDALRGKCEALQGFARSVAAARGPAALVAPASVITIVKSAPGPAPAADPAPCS

For `C=C1CC[C@H]2[C@@H](/C=C(\C)C(=O)[C@@]3(O)C[C@H](C)[C@H](O)[C@@H]3[C@H]1OCc1cn(CC(=O)N[C@H](C(=O)N3C[C@H](O)C[C@H]3C(=O)NCc3ccc(-c4scnc4C)cc3)C(C)(C)C)nn1)C2(C)C`, the IC50 in the experiment on RAW264.7 [1] was more than 50 µM; with RAW264.7 [2], more than 20 µM.
On the same counts, the results for `C=C1CC[C@H]2[C@@H](/C=C(\C)C(=O)[C@@]3(O)C[C@H](C)[C@H](O)[C@@H]3[C@H]1OCc1cn(CC(=O)N[C@H](Cc3ccccc3)[C@H](O)C(=O)N[C@@H](CC(C)C)C(=O)OC)nn1)C2(C)C` are more than 50 µM and more than 20 µM.
`C=C1CC[C@H]2[C@@H](/C=C(\C)C(=O)[C@@]3(O)C[C@H](C)[C@H](O)[C@@H]3[C@H]1OCc1cn(CCOCCOCCNC(=O)CN3CCN(C(=O)N4C(c5ccc(OC)cc5OC(C)C)=N[C@H](c5ccc(Cl)cc5)[C@@H]4c4ccc(Cl)cc4)CC3=O)nn1)C2(C)C`: the result in the experiment on RAW264.7 [3] was Active. Also, the IC50 in the experiment with RAW264.7 [2] was more than 20 µM.
On the same counts, the results for `C=C1CC[C@H]2[C@@H](/C=C(\C)C(=O)[C@@]3(O)C[C@H](C)[C@H](O)[C@@H]3[C@H]1OCc1cn(CCOCCOCCOCCNC(=O)CN3CCN(C(=O)N4C(c5ccc(OC)cc5OC(C)C)=N[C@H](c5ccc(Cl)cc5)[C@@H]4c4ccc(Cl)cc4)CC3=O)nn1)C2(C)C` are “Active” and more than 20 µM.
On to `C=C1CC[C@H]2[C@@H](/C=C(\C)C(=O)[C@@]3(O)C[C@H](C)[C@H](O)[C@@H]3[C@H]1OCc1cn(CCOCCOCCNC(=O)[C@H](CC(C)C)NC(=O)[C@@H](O)[C@@H](Cc3ccccc3)NC(=O)OC(C)(C)C)nn1)C2(C)C`, for which the outcome (in [4]; in the experiment on RAW264.7 [5]; in the experiment with RAW264.7 [6]; in experiment [8]; in the experiment on RAW264.7 [10]; with RAW264.7 [11]) was Active. The result (in the experiment on RAW264.7 [12]; in the experiment with RAW264.7 [13]; in experiment [15]; in the experiment with RAW264.7 [16]) was Active. Moreover, the Activity entry in the experiment on RAW264.7 [7] and in the experiment on RAW264.7 [17] was “Dose-Dependent Effect” each time. For the same compound, the result in experiment [9] and in experiment [14] was inactive. Also, the IC50 was more than 50 µM in the experiment on RAW264.7 [1] and 5.3 µM in the experiment with RAW264.7 [2].
With `C=C1CC[C@H]2[C@@H](/C=C(\C)C(=O)[C@@]3(O)C[C@H](C)[C@H](O)[C@@H]3[C@H]1OCc1cn(CCOCCOCCOCCOCCNC(=O)CN3CCN(C(=O)N4C(c5ccc(OC)cc5OC(C)C)=N[C@H](c5ccc(Cl)cc5)[C@@H]4c4ccc(Cl)cc4)CC3=O)nn1)C2(C)C`, in the experiment with RAW264.7 [3], the result was Active. Besides, in the experiment with RAW264.7 [2], the IC50 is more than 20 µM.
`C=C1CC[C@H]2[C@@H](/C=C(\C)C(=O)[C@@]3(O)C[C@H](C)[C@H](O)[C@@H]3[C@H]1OCc1cn(CC(=O)N[C@H](C(=O)N3C[C@H](O)C[C@H]3C(=O)N[C@H](C)c3ccc(-c4scnc4C)cc3)C(C)(C)C)nn1)C2(C)C`: the IC50 is more than 50 µM in the experiment with RAW264.7 [1] and more than 20 µM in the experiment with RAW264.7 [2].
On the same counts, the results for `C=C1CC[C@H]2[C@@H](/C=C(\C)C(=O)[C@@]3(O)C[C@H](C)[C@H](O)[C@@H]3[C@H]1OCc1cn(CCCCCC(=O)N[C@H](C(=O)N3C[C@H](O)C[C@H]3C(=O)N[C@H](C)c3ccc(-c4scnc4C)cc3)C(C)(C)C)nn1)C2(C)C` are more than 50 µM and more than 20 µM.
On the same counts, the results for `C=C1CC[C@H]2[C@@H](/C=C(\C)C(=O)[C@@]3(O)C[C@H](C)[C@H](O)[C@@H]3[C@H]1OCc1cn(CCCC(=O)N[C@H](C(=O)N3C[C@H](O)C[C@H]3C(=O)N[C@H](C)c3ccc(-c4scnc4C)cc3)C(C)(C)C)nn1)C2(C)C` are more than 50 µM and more than 20 µM.
For the compound `C=C1CC[C@H]2[C@@H](/C=C(\C)C(=O)[C@@]3(O)C[C@H](C)[C@H](O)[C@@H]3[C@H]1OCc1cn(CCOCCOCCOCCOCCNC(=O)[C@H](CC(C)C)NC(=O)[C@@H](O)[C@@H](Cc3ccccc3)NC(=O)OC(C)(C)C)nn1)C2(C)C`, the IC50 in the experiment on RAW264.7 [1] is more than 50 µM; in the experiment with RAW264.7 [2], more than 20 µM.
In the case of `C=C1CC[C@H]2[C@@H](/C=C(\C)C(=O)[C@@]3(O)C[C@H](C)[C@H](O)[C@@H]3[C@H]1OCc1cn(CCCCCC(=O)N[C@H](C(=O)N3C[C@H](O)C[C@H]3C(=O)NCc3ccc(-c4scnc4C)cc3)C(C)(C)C)nn1)C2(C)C`, the outcome with RAW264.7 [3] was Active. Besides, the IC50 in the experiment on RAW264.7 [2] was more than 20 µM.
Take `C=C1CC[C@H]2[C@@H](/C=C(\C)C(=O)[C@@]3(O)C[C@H](C)[C@H](O)[C@@H]3[C@H]1OCc1cn(CCCC(=O)N[C@H](C(=O)N3C[C@H](O)C[C@H]3C(=O)NCc3ccc(-c4scnc4C)cc3)C(C)(C)C)nn1)C2(C)C`: the half-inhibitory concentration (IC50) in the experiment on RAW264.7 [1] was more than 50 µM; in the experiment on RAW264.7 [2], more than 20 µM.
For `C=C1CC[C@H]2[C@@H](/C=C(\C)C(=O)[C@@]3(O)C[C@H](C)[C@H](O)[C@@H]3[C@H]1OCc1cn(CCOCCOCCOCCNC(=O)[C@H](CC(C)C)NC(=O)[C@@H](O)[C@@H](Cc3ccccc3)NC(=O)OC(C)(C)C)nn1)C2(C)C`, the IC50 with RAW264.7 [1] was more than 50 µM; with RAW264.7 [2], more than 20 µM.
On the same counts, the results for `C=C1CC[C@H]2[C@@H](/C=C(\C)C(=O)[C@@]3(O)C[C@H](C)[C@H](O)[C@@H]3[C@H]1OCc1cn(CCCC(=O)N[C@H](Cc3ccccc3)[C@H](O)C(=O)N[C@@H](CC(C)C)C(=O)OC)nn1)C2(C)C` are more than 50 µM and more than 20 µM.
On the same counts, the results for `C=C1CC[C@H]2[C@@H](/C=C(\C)C(=O)[C@@]3(O)C[C@H](C)[C@H](O)[C@@H]3[C@H]1OCc1cn(CCCCCC(=O)N[C@H](Cc3ccccc3)[C@H](O)C(=O)N[C@@H](CC(C)C)C(=O)OC)nn1)C2(C)C` are more than 50 µM and more than 20 µM.
